How the values were obtained:
[1] = target: T1, TRPM8 (Rattus norvegicus, UniProt Q8R455); assay: Ensemble TRPM8 currents in droplet lipid bilayer with solution perfusion (drug potency); assay type: biochemical; details: +100 mV
T1 construct: 6x histidine tag (N); made in house; host or cells: E. coli
Description: (§1) The apparatus was prepared for use by filling the outer wells and lower channel with 200 μL of an aqueous solution containing liposomes (described below) (FIG. 1B). The 200 μm aperture in the hydrophobic Delrin film is sufficiently small to prevent flow of aqueous solution through it. 80 μL of n-decane was then added to the center well, contacting the lower aqueous solution through the Delrin aperture (FIG. 1B). […] The lower aqueous solution could be exchanged by adding and withdrawing fluids through the outer wells (FIG. 1B).
2 μL of this solution was used for the sessile droplet and 200 μL of this solution (or a similarly prepared liposome solution not containing TRPM8) was added to the lower aqueous channel.
A Ag/AgCl counter electrode placed in the one of the outer wells and the Ag/AgCl pin electrode were connected to an Axopatch 200B amplifier (Axon Instruments), which was used to apply a transmembrane potential and measure the resultant ionic current (FIG. 1B). […] Bilayer capacitance was measured throughout to ensure that changes in measured current were due to changes in channel conductance and not changes in bilayer size or stability. […]
The resultant current at each concentration was measured over 10 minutes before the concentration was increased (FIG. 7). […]
The average current at each concentration was determined and normalized by the maximum value measured. […]

[2] = Control: DPhPC droplet bilayers made without hERG membrane preparations; details: identical amounts of drug added
[3] = target: T1, TRPM8; assay: Single-channel TRPM8 recordings in droplet lipid bilayer (open probability); assay type: biochemical; details: 20° C., +100 mV, 2.5 μM PI(4,5)P2, n=9
Description: as §1
A TRPM8 construct with 6× histidine tag at the amino terminus was transformed into E. coli, expressed, and purified. […] The resulting proteoliposomes were aliquoted and stored at −80° C. […]
A Ag/AgCl counter electrode placed in the one of the outer wells and the Ag/AgCl pin electrode were connected to an Axopatch 200B amplifier (Axon Instruments), which was used to apply a transmembrane potential and measure the resultant ionic current (FIG. 1B). […] Bilayer capacitance was measured throughout to ensure that changes in measured current were due to changes in channel conductance and not changes in bilayer size or stability.
Temperature was measured using a 10 kΩ n-type thermistor (Newark) placed in the solution of one of the outer wells. […]
Ensembles of TRPM8 were measured using a 1:1000 protein:lipid ratio.

[4] = target: T1, TRPM8; assay: Ensemble TRPM8 currents while varying PI(4,5)P2 concentration; assay type: biochemical; details: 250 μM menthol, +100 mV, 20° C.
Description: Data were filtered at 200 Hz. Measurements began in the absence of PI(4,5)P2. After ten minutes at each concentration, the concentration of PI(4,5)P2 was then increased by 0.8 μM with the addition of […] PI(4,5)P2 stock solution (100 μM) to the 200 μL lower aqueous solution. With no PI(4,5)P2 in the measurement solution, there was no observed channel activity. As the concentration of PI(4,5)P2 increased, frequency of channel opening increased. […] Throughout experiments, temperature was kept constant at 20° C.
During measurement, solutions were added to the fluid inlet well and withdrawn from the fluid outlet well (FIG. 6D).
Bilayers were formed with this chip at very high yield and with highly consistent diameters (163±14 μm (n=55), measured capacitively).^17 Following bilayer formation, a potential of 0 mV was applied followed by voltage steps from −100 mV to +100 mV, in 20 mV increments for 10 seconds each, and the resulting current measured. We measured no TRPM8 currents in the absence of the signaling phospholipid PI(4,5)P2, in agreement with previous work (B. Liu and F. Qin, J. Neurosci., 2005, 25, 1674-1681; T. Rohács, C. M. B. Lopes, I. Michailidis and D. E. Logothetis, Nat. Neurosci., 2005, 8, 626-634). […] With PI(4,5)P2, constant TRPM8 currents were almost always observed immediately upon bilayer formation.

T1 sequence (Q8R455 whole entry, the tested form may be a part): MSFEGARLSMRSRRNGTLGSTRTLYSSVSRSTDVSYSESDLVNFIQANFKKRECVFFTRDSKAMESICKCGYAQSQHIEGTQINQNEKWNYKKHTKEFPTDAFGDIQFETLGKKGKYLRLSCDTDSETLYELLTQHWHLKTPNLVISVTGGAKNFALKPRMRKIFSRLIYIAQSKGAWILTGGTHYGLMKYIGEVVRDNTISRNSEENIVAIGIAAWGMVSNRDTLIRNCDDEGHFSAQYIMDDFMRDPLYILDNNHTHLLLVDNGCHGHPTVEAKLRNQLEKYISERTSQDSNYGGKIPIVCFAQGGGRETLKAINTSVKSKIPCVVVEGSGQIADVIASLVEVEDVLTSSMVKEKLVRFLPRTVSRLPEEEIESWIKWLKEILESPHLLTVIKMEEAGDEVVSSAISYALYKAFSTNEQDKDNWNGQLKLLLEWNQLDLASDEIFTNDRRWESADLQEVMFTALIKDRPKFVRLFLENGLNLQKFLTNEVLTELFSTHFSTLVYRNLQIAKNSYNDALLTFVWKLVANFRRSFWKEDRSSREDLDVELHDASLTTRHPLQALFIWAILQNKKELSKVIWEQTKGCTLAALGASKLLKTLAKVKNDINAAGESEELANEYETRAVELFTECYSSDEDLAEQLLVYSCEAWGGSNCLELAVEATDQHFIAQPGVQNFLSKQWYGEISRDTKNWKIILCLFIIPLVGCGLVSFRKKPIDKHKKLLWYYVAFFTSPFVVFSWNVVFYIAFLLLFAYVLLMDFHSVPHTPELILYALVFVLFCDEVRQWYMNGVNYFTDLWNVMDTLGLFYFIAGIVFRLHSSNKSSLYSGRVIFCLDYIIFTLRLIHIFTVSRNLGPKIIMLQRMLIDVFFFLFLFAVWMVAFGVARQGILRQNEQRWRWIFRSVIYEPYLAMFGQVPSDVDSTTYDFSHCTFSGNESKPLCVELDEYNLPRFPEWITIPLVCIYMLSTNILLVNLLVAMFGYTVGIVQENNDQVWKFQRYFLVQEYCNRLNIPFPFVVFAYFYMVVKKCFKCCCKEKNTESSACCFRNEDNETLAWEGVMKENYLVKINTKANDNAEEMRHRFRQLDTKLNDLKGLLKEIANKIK

NCCOB(c1ccccc1)c1ccccc1 [2-APB, 2-aminoethoxydiphenyl borate]
IC50 ([1]; read-out: IC50 of 2-APB on menthol-evoked TRPM8 currents, in 500 μM menthol, protein:lipid 1:1000, n=3): 4.9 µM

COc1ccc(CCN2CCC(Nc3nc4ccccc4n3Cc3ccc(F)cc3)CC2)cc1 [astemizole]
Effect on bilayers without hERG [2]: no change in membrane conductance observed

CC1CCC(C(C)C)C(O)C1 (stereo not drawn) [menthol]
EC50 ([1]; protein:lipid 1:1000, 2.5 μM PI(4,5)P2, n=3): 112 µM
Popen (open probability) of TRPM8 ([3]; 50 μM menthol): 0.639±0.029
Popen (open probability) of TRPM8 ([3]; 500 μM menthol): 0.967±0.013

phosphatidylinositol-4,5-bisphosphate [PI(4,5)P2]
PI(4,5)P2 concentration at which maximum current did not increase further [4]: 2.4 µM

— patent US9150598B2, “Masking apertures enabling automation and solution exchange in sessile bilayers” (The Regents of the University of California, priority 2011, dated 2015)
